# Source: US9457099B2, “Polyethylene glycol-based dendrons” (RUTGERS, THE STATE UNIVERSITY OF NEW JERSEY, priority 2010, dated 2016)
# Experiments:
# [1] = Dynamic light scattering (DLS) analysis of dendrons; format: physicochemical; settings: sample concentration 1 mg/mL, 4° C.
# Description: PEGtides were purified on an Alliance reverse-phase high-performance liquid chromatography (RP-HPLC) system (Waters, Mass.) using a Symmetry C18 column (4.6×150 mm, 100 Å, particle size 5 μm). Following mobile phase was used: solvent A, 0.05% aqueous TFA; and solvent B, acetonitrile containing 0.05% TFA. A linear gradient of 95% to 70% of A was applied for 60 min at a flow rate of 1 mL/min. The UV absorptions were monitored at 220 and 250 nm, whereas fluorescence detector was set with excitation and emission wavelengths of 492 and 518 nm, respectively. The dendrons and there derivatives were quantified on a F-7000 fluorescence spectrophotometer (HITACHI, Japan). Mass spectra were acquired on an ABI-MDS SCIEX 4800 matrix-assisted laser desorption/ionisation-time of flight (MALDI-TOF/TOF) mass spectrometer (AB Sciex, Foster City, Calif.). Sample solutions (2 μL) were mixed with matrix solution (20 μL, 20 mg/mL sinapinic acid in 50% aqueous acetonitrile containing 0.1% TFA). This mixture (1 μL) was spotted onto sample holder and dried under a gentle stream of argon at room temperature. All spectra were recorded in positive mode using a linear acquisition method. The dynamic light scattering (DLS) experiments were performed on a Wyatt Dynapro Titan instrument (Wyatt Technology, Santa Barbara, Calif.) with sample concentration of 1 mg/mL. […]
# [2] = tested on: J774.E murine macrophage cells; assay: Quantitative macrophage uptake of dendrons (5-FAM fluorescence of cell lysate), with mannan inhibition; format: cell-based
# Description: (§1) J774.E murine macrophage cells were grown as attached cells in a CO2 water-jacketed incubator (Form a Scientific Inc., Marietta, Ohio) with a humidified 5% CO2 atmosphere at 37° C. The cells were maintained in RPMI-1640 (GIBCO) containing 10% fetal bovine serum (FBS), 100 U/mL penicillin, and 100 μg/mL streptomycin/mL. The cells were seeded two days before experiment to 24-well plates at 0.5×10^5 cells/well for quantitative uptake measurement or to chambered coverglass (LAB-TEK II) at 1×10^5 cell/chamber for confocal microscopy. Cells were incubated with G3.0-Mannose (40 nM) in HBSS at 37° C. for 1 hr. For confocal microscopy, the incubation included the additional 0.16 mg/mL of the general endocytosis marker rhodamine B-labeled dextran (10,000 MW) and the nuclear dye DAPI. For Mannan inhibition studies, cells were pre-incubated with mannan (10 mg/mL) for 1 hr, followed by incubation with G3.0-Mannose, with or without rhodamine B-dextran/DAPI plus 10 mg/mL of mannan. After incubation, the unbound molecules were washed thrice using cold DPBS buffer. PEGtide dendron G3.0 (40 nM) (without mannose) was used as a negative control of mannose receptor-mediated cellular uptake.
# In quantitative uptake experiments, the washed cells were lysed in wells overnight with 150 μL of 1 N NaOH solution and neutralized the next day with 150 μL of 1 N HCl solution, resulting in 300 μL of cell lysate/well. 250 μL of cell lysate was transferred to a well of a 96-well plate for 5-FAM fluorescence measurement on Tecan GENIOS fluorescent plate reader (Phenix Research Products, Hayward, Calif.). The total cell-associated fluorescence reading was converted into total cell-associated dendron amount using a separately established dendron's fluorescence standard curve. A small fraction of the lysate (about 50 μL, depending on cell density plated) was used to determine total cellular protein/well by Bradford Protein Assay. The total cellular protein/well was used to normalize the dendron amount/well to correct well-to-well variation in cell mass.
# [3] = tested on: J774.E murine macrophage cells; assay: Confocal microscopy of dendron uptake; format: cell-based; settings: 40 nM, 1 hr, with rhodamine B-labeled dextran and DAPI
# Description: as §1, with “For Mannan inhibition studies, cells were pre-incubated with mannan (10 mg/mL) for 1 hr, followed by incubation with G3.0-Mannose, with or without rhodamine B-dextran/DAPI plus 10 mg/mL of mannan. After incubation, the unbound molecules were washed thrice using cold DPBS buffer. PEGtide dendron G3.0 (40 nM) (without mannose) was used as a negative control of mannose receptor-mediated cellular uptake.” left out
# In quantitative uptake experiments, the washed cells were lysed in wells overnight with 150 μL of 1 N NaOH solution and neutralized the next day with 150 μL of 1 N HCl solution, resulting in 300 μL of cell lysate/well. 250 μL of cell lysate was transferred to a well of a 96-well plate for 5-FAM fluorescence measurement on Tecan GENIOS fluorescent plate reader (Phenix Research Products, Hayward, Calif.). The total cell-associated fluorescence reading was converted into total cell-associated dendron amount using a separately established dendron's fluorescence standard curve. […]
# Cell viability MTT assay = format: cell-based; settings: mouse, J774.E murine macrophage cells; 40 nM in HBSS for 2 hours; mean±standard deviation (n=6); read-out: cell relative viability (MTT)
# Description: (1) Prepared MTT solution in PBS (pH 7.4) with final concentration of 5 mg/mL.
# (2) Cultured J774.E muring macrophage cells with G3.0-Mannose, G3.0 and PAMAM G1.0, with each concentration of 40 nM, in HBSS for 2 hours. 6 replicates were applied. (n=6).
# (3) Aspirated off the culture medium and washed with DPBS for three times for each well.
# (4) 100 μL of HBSS and 25 μL of MIT solution were added to each well. Placed the plate in incubator at 37° C. overnight.
# (5) Aspirated off the HBSS/MTT solution. Added 200 μL of DMSO for dissolving the crystals.
# (6) Transferred to plate reader and measure the absorption at 570 nm.
structure (smiles),measurement,setting,value
O=C(O)CCNC(=O)[C@H](CCCCNC(=O)c1ccc2c(c1)C(=O)OC21c2ccc(O)cc2Oc2cc(O)ccc21)NC(=O)CCOCCOCCOCCOCCOCCOCCNC(=O)[C@H](CCCCNC(=O)CCNC(=O)CCOCCOCCOCCOCCOCCOCCNC(=O)[C@H](CCCCNC(=O)CCNC(=O)CCOCCOCCOCCOCCOCCOCCNC(=O)[C@H](CCCCNC(=O)CCNC(=O)CCOCCOCCOCCOCCOCCOCCNC(=S)Nc1ccc(O[C@H]2O[C@H](CO)[C@@H](O)[C@H](O)[C@@H]2O)cc1)NC(=O)CCNC(=O)CCOCCOCCOCCOCCOCCOCCNC(=S)Nc1ccc(O[C@H]2O[C@H](CO)[C@@H](O)[C@H](O)[C@@H]2O)cc1)NC(=O)CCNC(=O)CCOCCOCCOCCOCCOCCOCCNC(=O)[C@H](CCCCNC(=O)CCNC(=O)CCOCCOCCOCCOCCOCCOCCNC(=S)Nc1ccc(O[C@H]2O[C@H](CO)[C@@H](O)[C@H](O)[C@@H]2O)cc1)NC(=O)CCNC(=O)CCOCCOCCOCCOCCOCCOCCNC(=S)Nc1ccc(O[C@H]2O[C@H](CO)[C@@H](O)[C@H](O)[C@@H]2O)cc1)NC(=O)CCNC(=O)CCOCCOCCOCCOCCOCCOCCNC(=O)[C@H](CCCCNC(=O)CCNC(=O)CCOCCOCCOCCOCCOCCOCCNC(=O)[C@H](CCCCNC(=O)CCNC(=O)CCOCCOCCOCCOCCOCCOCCNC(=S)Nc1ccc(O[C@H]2O[C@H](CO)[C@@H](O)[C@H](O)[C@@H]2O)cc1)NC(=O)CCNC(=O)CCOCCOCCOCCOCCOCCOCCNC(=S)Nc1ccc(O[C@H]2O[C@H](CO)[C@@H](O)[C@H](O)[C@@H]2O)cc1)NC(=O)CCNC(=O)CCOCCOCCOCCOCCOCCOCCNC(=O)[C@H](CCCCNC(=O)CCNC(=O)CCOCCOCCOCCOCCOCCOCCNC(=S)Nc1ccc(O[C@H]2O[C@H](CO)[C@@H](O)[C@H](O)[C@@H]2O)cc1)NC(=O)CCNC(=O)CCOCCOCCOCCOCCOCCOCCNC(=S)Nc1ccc(O[C@H]2O[C@H](CO)[C@@H](O)[C@H](O)[C@@H]2O)cc1 [G3.0-Mannose],hydrodynamic radius (DLS),[1],90.6 nm
same,quantitative uptake in macrophage,"[2]; 40 nM in HBSS at 37° C. for 1 hr, normalized to total cellular protein",699.6 ± 1.8 pmol/µg
same,specificity for mannose receptor (uptake vs non-mannosylated G3.0),"[2]; 40 nM, 1 hr",53 fold
same,uptake in presence of mannan (mannan inhibition),"[2]; 40 nM, 1 hr, cells pre-incubated 1 hr and co-incubated with mannan 10 mg/mL",7.5 ± 4.7 pmol/µg
same,"intracellular green fluorescence (5-FAM), confocal microscopy",[3],prominent only in G3.0-Mannose treated cells
same,"viability at 2 h, 0.04 µM",Cell viability MTT assay,96.4 ± 7.81%
